Test system: early carious lesions (enamel lesions of anterior maxillary teeth)
Test: QLF analysis of enamel lesion remineralization, 6-month clinical study of sugar-free chewing gums
Assay type: in vivo, human
Conditions: for stopping and reversing the oral white lesions, compared with the two control groups: 6-month study; for ΔF compared with gumbase group and control group without gum: after 3 months, P<0.01; for ΔF compared with the two control groups (gumbase and no gum) / ΔQ compared with the two control groups (gumbase and no gum): after 6 months, p<0.01
Source text: The QLF™ (Quantitative Light-induced Fluorescence) method is a dental diagnostic tool for the quantitative evaluation, in vivo and in vitro, of dental carious lesions. The apparatus is equipped with a camera and is connected to a computer (using a program specific to QLF™). The probe, which emits a blue light (xenon lamp+filter), is passed over the tooth tested, which retransmits this light in the form of fluorescence. […] This photograph or instantaneous image is then processed using the software of the QLF™ which then recreates a reconstituted image representing the carious lesion. With this method, the real-time fluorescent images are entered into the computer and stored in an image database. Quantitative analysis of the images allows the user to quantify parameters such as loss of minerals, lesion depth, lesion size, size of the spots present on the teeth and seriousness of the various lesions with great precision and repeatability. The QLF™ method is based on the autofluorescence of the teeth. When the teeth are illuminated by the high-intensity blue light, they will begin to emit light in the green part of the spectrum. The intensity of the fluorescence of the dental material is directly related to the mineral content of the enamel. Since the QLF™ method uses fluorescence to reveal the dental carie, the contrast between the demineralized enamel and the healthy enamel is increased. Thus, the absence of specular reflection in the images obtained by the QLF™ method facilitates the calculation of the size and seriousness of the lesion by the digital image processing system. Evaluation of the efficacy against caries of a sugar-free chewing gum containing maltitol sold by the applicant under the brand SweetPearl™ using a study model consisting of various appropriate control groups (gum and maltitol, gum and xylitol, gum without polyol and no chewing gum) and the QLF™ method. Children from 8 to 13 years old, in good health, were included in the study. Their parents were informed about the study by the teachers of the school and signed an informed consent form. […] In total, 420 pupils completed a six-month study. This study is a double-blind (subjects, caregivers and examiners), multicenter, parallel, random clinical study carried out in schools. The evaluation of the dental plaque uses the Silness method and the Loe index. The digital images were taken using a digital photographic apparatus, and those of the QLF™ method were taken using the QLF™ apparatus separately. Before this examination, all the dental plaque was removed from the surface of the teeth. All the procedures were supervised by qualified personnel (dentists/hygienists). The QLF™ method was used to monitor the evolution of demineralization and remineralization of the enamel lesions. During the visit, fluorescent images were taken of the six (or fewer) anterior maxillary teeth. An image of each tooth was taken at each visit in order to ensure that all the anterior teeth were photographed. All the images taken using the QLF™ apparatus were analyzed by an experienced individual in order to determine the “mineral condition” of each tooth, using proprietory software (QLF 2.00, Inspektor, The Netherlands). The QLF™ method makes it possible to control three distinct parameters: ΔF, the area of the lesion and ΔQ. ΔF is the percentage loss of fluorescence between the comparison of a healthy enamel and an identified lesion. The detection threshold for ΔF is 5%, which means that a loss of fluorescence below this threshold is considered to be background noise and therefore not significant. The area of the lesion is calculated by means of the pixels taken into account by the analysis software as representing the demineralized enamel (i.e. those with a loss of fluorescence of at least 5%). ΔQ is the product of ΔF multiplied by the area of the lesion and represents the volume of this lesion. […]

[1] = 3 Months, 2 chewing gums (up to 60% polyol) 5 times per day
[2] = 6 Months, 2 chewing gums (up to 60% polyol) 5 times per day
[3] = Baseline, children 8-13 years, mean ± spread

OC[C@@H](O)[C@H](O)[C@@H](O)CO [Xylitol, xylitol]
QLF parameter Area (area of the lesion) [1]: 2.43 ± 1.72 | QLF parameter ΔF (percentage loss of fluorescence) [1]: −8.56 ± 2.02 | QLF parameter ΔQ (ΔF multiplied by area of the lesion) [1]: −22.10 ± 18.85 | stopping and reversing the oral white lesions, compared with the two control groups: significantly more effective | QLF parameter Area (area of the lesion) [2]: 2.31 ± 1.85 | QLF parameter ΔF (percentage loss of fluorescence) [2]: −8.37 ± 1.78 | QLF parameter ΔQ (ΔF multiplied by area of the lesion) [2]: −18.19 ± 21.29 | QLF parameter ΔF (percentage loss of fluorescence) (Baseline, children 8-13 years): −9.36 ± 1.92 | QLF parameter ΔQ (ΔF multiplied by area of the lesion) (Baseline, children 8-13 years): −25.95 ± 24.66 | QLF parameter Area (area of the lesion) [3]: 2.58 ± 1.91 | ΔF compared with gumbase group and control group without gum: significantly different | ΔF compared with the two control groups (gumbase and no gum): considerable differences | ΔQ compared with the two control groups (gumbase and no gum): considerable differences

OC[C@@H](O)[C@@H](O[C@H]1O[C@H](CO)[C@@H](O)[C@H](O)[C@H]1O)[C@H](O)[C@@H](O)CO [Maltitol, maltitol]
QLF parameter Area (area of the lesion) [1]: 2.33 ± 1.90 | QLF parameter ΔF (percentage loss of fluorescence) [1]: −8.78 ± 1.78 | QLF parameter ΔQ (ΔF multiplied by area of the lesion) [1]: −20.62 ± 18.97 | stopping and reversing the oral white lesions, compared with the two control groups: significantly more effective | QLF parameter Area (area of the lesion) [2]: 2.18 ± 1.63 | QLF parameter ΔF (percentage loss of fluorescence) [2]: −8.42 ± 1.87 | QLF parameter ΔQ (ΔF multiplied by area of the lesion) [2]: −16.69 ± 15.15 | QLF parameter ΔF (percentage loss of fluorescence) (Baseline, children 8-13 years): −9.38 ± 1.79 | QLF parameter ΔQ (ΔF multiplied by area of the lesion) (Baseline, children 8-13 years): −24.87 ± 23.06 | QLF parameter Area (area of the lesion) [3]: 2.47 ± 1.95 | ΔF compared with gumbase group and control group without gum: significantly different | ΔF compared with the two control groups (gumbase and no gum): considerable differences | ΔQ compared with the two control groups (gumbase and no gum): considerable differences

— patent US20160250127A1, “USE OF A POLYOL IN THE REMINERALISATION OF ENAMEL” (ROQUETTE FRERES, priority 2013, published 2016)
